In PMC7092914 (Biochemical and Biophysical Research Communications, 2005):
Entries after “also recorded” stand apart in the source; their conditions may differ.

Biological target: SARS-CoV 3CL protease (Severe acute respiratory syndrome coronavirus, UniProt P0C6X7)
Assay: biochemical
Assay type: biochemical

Compound | IC50 | apparent Vmax in presence of inhibitor | dependence of inhibitory effect on preincubation time | inhibition mechanism / binding mode | potency relative to hexachlorophene (times less potent)
Oc1c(Cl)cc(Cl)c(Cl)c1Cc1c(O)c(Cl)cc(Cl)c1Cl [hexachlorophene] | 5 µM | 6.98 ± 0.16 µmol/min/mg | dependent on preincubation time; also recorded: slowly binding inhibitor | classic competitive inhibitor | 
Cc1c(O)cccc1C(=O)N[C@@H](CSc1ccccc1)[C@H](O)CN1C[C@H]2CCCC[C@H]2C[C@H]1C(=O)NC(C)(C)C [nelfinavir] | 46 µM |  |  |  | about 10 times
Oc1cc(Cl)ccc1Oc1ccc(Cl)cc1Cl [triclosan] |  |  |  |  | about 10 times
